From patent US5972636A (priority 1997, dated 1999) come the findings set out here.

Like-named read-outs stand apart in the source and are kept apart here.

For data set [1], the system named is new protease (multipain) from skeletal muscle. To be noted: for effect of nucleotides on Ub-125I-lysozyme hydrolysis by the purified enzyme, in words / Relative activity (%), degradation of Ub-125I-lysozyme by the new activity: Table III; for Relative activity (%), degradation of Ub-125I-lysozyme by the new activity: 2 mM of the nucleotides or 10 mM PPi, 37° C. 1 hour; for stimulation of Ub-lysozyme hydrolysis by the new protease: ATP 2 mM where stated, 60 min.

Data set [2] deals with 1500 kDa complex (proteasome-multipain). To be noted: for effect of nucleotides on Ub-125I-lysozyme hydrolysis by the complex, in words / Realtive Activity (%) Complex, Ub-lysozyme degradation: Table VIII; for Realtive Activity (%) Complex, Ub-lysozyme degradation: None = 100, 2 mM of the nucleotide or 10 mM PPi.
The target of data set [3] is T1, proteasome from skeletal muscle (Oryctolagus cuniculus, UniProt G1T4Q9).
T1 construct: from tissue; host or cells: rabbit skeletal (psoas) muscle, proteasome fraction after Mono Q and Superose 6
In kind it is biochemical, rabbit.

[4] abbreviates: Table IV, None = 100, 2 mM ATP, 37° C. 1 h, concentrations as in E1.

Consider CBZ-ala-arg-arg-CK, for which, in data set [1], the “concentration that inactivates multipain” value came to 50 µM. For the same molecule, the “concentration that inactivates the 1500 kDa complex” value in data set [2] stood at 50 µM.
Hemin: in data set [3], the “Relative activity (%) […]-MCA” value is reported as 0%. Also, the “Relative activity (%) NEW […] Ub-lysozyme” value in data set [1] (Table IV, None = 100, 2 mM ATP, 37° C. 1 h, DFP 1 mM, Cystatin A 4 uM, Hemin 0.1 mM, NEM 1 mM, Leupeptin 0.1 mM, E64 0.1 mM, NaOleate 0.125 mM, SDS 0.01%, o-Phenanthroline 0.1 mM) was found to be 0%. The “Relative activity (%) NEW […] OH/O2 - treated hemoglobin” value in data set [1] (setting [4]) is 7%. In addition, the “Relative activity (%) NEW […] lysozyme” value in data set [1] (setting [4]) stood at 0%. Also, the “effect on Ub-conjugate breakdown by the new protease (multipain), in words” value is reported as “blocked conjugate-degrading activity” in data set [1] (text) and “is sensitive to” in data set [1] (text, listed as hemin).
As for `Nc1ncnc2c1ncn2[C@@H]1O[C@H](COP(=O)(O)OP(=O)(O)OP(O)(O)=S)[C@@H](O)[C@H]1O` [ATP-γ-S, adenosine 5'-o-thiotriphosphate], the “effect of nucleotides on Ub-125I-lysozyme hydrolysis by the purified enzyme, in words” value (“effect … by the purified enzyme, in words” for short) in data set [1] is reported as “No stimulation”. For the same molecule, the “Relative activity (%), degradation of Ub-125I-lysozyme by the new activity” value (from here on “Relative activity (%), degradation”) in data set [1] (None = 100) is reported as 103%. Also, in data set [2], the “effect of nucleotides on Ub-125I-lysozyme hydrolysis by the complex, in words” value (“effect of nucleotides … by the complex, in words” below) was “No stimulation” and the “Realtive Activity (%) Complex, Ub-lysozyme degradation” value (from here on “Realtive Activity (%) Complex”) was found to be 135%.
For `O=c1ccn([C@@H]2O[C@H](COP(=O)(O)OP(=O)(O)OP(=O)(O)O)[C@@H](O)[C@H]2O)c(=O)[nH]1` [UTP], the “Relative activity (%), degradation” value in data set [1] (None = 100) worked out at 108%. Also, the “Realtive Activity (%) Complex” value in data set [2] came out at 174%.
Regarding `Nc1nc2c(ncn2[C@@H]2O[C@H](COP(=O)(O)OP(=O)(O)OP(=O)(O)O)[C@@H](O)[C@H]2O)c(=O)[nH]1` [GTP], the “stimulation of Ub-lysozyme hydrolysis by the new protease” value in data set [1] was roughly 4 fold. For the same molecule, in data set [1] (None = 100), the “Relative activity (%), degradation” value turned out to be 435%. For the same molecule, the “Realtive Activity (%) Complex” value in data set [2] is listed as 326%.
On to `Nc1ncnc2c1ncn2[C@@H]1O[C@H](COP(=O)(O)O)[C@@H](O)[C@H]1O` [AMP], for which, in data set [1], the “effect … by the purified enzyme, in words” value is reported as “no significant effect”. In data set [1] (None = 100), the “Relative activity (%), degradation” value stood at 130%. Further, in data set [2], the “effect of nucleotides … by the complex, in words” value is reported as “no significant effect” and the “Realtive Activity (%) Complex” value worked out at 99%.
Take `Nc1ncnc2c1ncn2[C@@H]1O[C@H](COP(=O)(O)OP(=O)(O)O)[C@@H](O)[C@H]1O` [ADP]: the “effect … by the purified enzyme, in words” value in data set [1] is reported as “no significant effect”. For the same molecule, in data set [1] (None = 100), the “Relative activity (%), degradation” value is 113%. In data set [2], the “effect of nucleotides … by the complex, in words” value is “no significant effect” and the “Realtive Activity (%) Complex” value stood at 146%.
In the case of `Nc1ccn([C@@H]2O[C@H](COP(=O)(O)OP(=O)(O)OP(=O)(O)O)[C@@H](O)[C@H]2O)c(=O)n1` [CTP], in data set [1], the “stimulation of Ub-lysozyme hydrolysis by the new protease” value is roughly 4 fold. The “Relative activity (%), degradation” value in data set [1] (None = 100) is listed as 373%. Moreover, the “Realtive Activity (%) Complex” value in data set [2] was found to be 410%.

B1: cystatin B (protein, UniProt P04080 1-98, looked up)
Cystatin-B: MMCGAPSATQPATAETQHIADQVRSQLEEKENKKFPVFKAVSFKSQVVAGTNYFIKVHVGDEDFVHLRVFQSLPHENKPLTLSNYQTNKAKHDELTYF
For B1, the “inhibition of Ub-conjugate breakdown by the new protease” value in data set [1] came out at 55%.

B2: cystatin C: member of the cystatin superfamily (protein, UniProt P01034 27-146, looked up)
Cystatin-C: SSPGKPPRLVGGPMDASVEEEGVRRALDFAVGEYNKASNDMYHSRALQVVRARKQIVAGVNYFLDVELGRTTCTKTQPNLDNCPFHDQPHLKRKAFCSFQIYAVPWQGTMTLSKSTCQDA
B2: in data set [1], the “effect on Ub-conjugate breakdown by the new protease (multipain), in words” value was “no significant effect”.
